Test results taken from patent US20210085739A1, “ANTIPLATELET ACTIVITY OF THE ACANTHUS MOLLIS SEEDS' TOTAL EXTRACT AND ITS CONSTITUENTS” (priority 2017, published 2021).

Experiments:
[1] = test system: platelet aggregation induced by AA; assay: Light Transmittance Aggregometry in human PRP, agonist arachidonic acid (AA; 0.5 mM); format: cell-based; details: for inhibition of AA-induced platelet aggregation (FIG. 5A, 6A): each agent 1 mg/mL, combinations at mass ratios 1:1 or 1:1:1
Protocol: (§1) The effect of methanol extract on platelet aggregation in vitro was extensively studied in human Platelet Rich Plasma (PRP) from healthy volunteers, using Light Transmittance Aggregometry (LTA), as we previously described (Mitsios J V, et al. Eur J Biochem. 2004; 271:855-862). PRP was activated by arachidonic acid (AA; 0.5 mM), Thrombin Receptor Activating Peptide-6 (TRAP-6; 10 μM) and ADP (10 μM), as agonists. Samples were prepared by evaporating the methanol under nitrogen and then by dissolving the residue in DMSO. The maximal aggregation, achieved within 4 min after the addition of each agonist, was determined and expressed as a percentage of 100% light transmission calibrated for each specimen (% maximal aggregation). The inhibitory efficacy of the seeds extract expressed as IC50 value (half maximal inhibitory concentration). All values derived from at least three independent experiments performed for each platelet agonist, using 3 different methanol extract preparations (prepared as described above) and are expressed as the mean±standard deviation (S.D.). The final concentration of DMSO in each assay was 0.01% by volume.
(§2) Each fraction was dissolved in DMSO and used at a final concentration of 1 mg/mL. Standards of Verbascoside and Isoverbascoside were also dissolved in DMSO and used at a final concentration of 1 mg/mL. […] This concentration was not much lower to that of the total extract 0.25 mg/mL (as it would expected, since we used a purified fraction from the total extract that expresses the inhibitory activity towards AA-induced platelet aggregation). Therefore, we used a combination of fraction 1 with fraction 2 or 3 (at mass ratios of 1:1) or a combination of the 3 fractions (at mass ratios of 1:1:1).

[2] = test system: platelet aggregation induced by TRAP-6; assay: Light Transmittance Aggregometry in human PRP, agonist TRAP-6 (10 μM); format: cell-based; details: each agent 1 mg/mL, combinations at mass ratios 1:1 or 1:1:1
Protocol: as §1, §2
Next we evaluated the biological effect of the three fractions towards platelet aggregation induced by TRAP-6.

| SMILES | inhibition of AA-induced platelet aggregation (FIG. 5A, 6A) [1] | inhibition of TRAP-6-induced platelet aggregation (FIG. 5B, 6B) [2] | threshold concentration (the lower concentration that induces the maximum inhibitory effect), AA-induced platelet aggregation [1] |
| --- | --- | --- | --- |
| C[C@@H]1O[C@@H](O[C@@H]2[C@@H](O)[C@H](OCCc3ccc(O)c(O)c3)O[C@H](COC(=O)/C=C/c3ccc(O)c(O)c3)[C@H]2O)[C@H](O)[C@H](O)[C@H]1O [Isoverbascoside] | do not inhibit platelet aggregation | inhibited platelet aggregation |  |
| C[C@@H]1O[C@@H](O[C@@H]2[C@@H](O)[C@H](OCCc3ccc(O)c(O)c3)O[C@H](CO)[C@H]2OC(=O)/C=C/c2ccc(O)c(O)c2)[C@H](O)[C@H](O)[C@H]1O [Verbascoside] | do not inhibit platelet aggregation | only Isoverbascoside inhibited platelet aggregation |  |
| O=C1C(O[C@@H]2O[C@H](CO)[C@@H](O)[C@H](O)[C@H]2O)Oc2ccccc2N1O (stereo partly drawn) [fraction 1, 2-O-β-D-glucopyranosyl-4-hydroxy-1,4-benzoxazin-3-one] | inhibited platelet aggregation | no inhibitory activity | 0.2 mg/mL |
